Test results as given in US9765114B2, “Method for cancer immunotherapy” (International Institute of Cancer Immunology, Inc., priority 2005, dated 2017).
No end group written: not given here.

How the values were obtained:
HLA-A24 = settings: HLA-A24-restricted manner; cited from earlier work
HLA-A24 antigen = settings: compared with the wild type peptide; cited from earlier work
splenocytes = assay: Immunization of a mouse (2), mouse IFN gamma ELISPOT of splenocytes; assay type: in vivo, HLA-A2402/K^b transgenic mouse; settings: splenocytes 7 days after immunization; peptides added at 10^-6 M, 18 hours; FIG. 8
Procedure: The peptide of Example 1 was adjusted to 40 mg/ml in DMSO. Then, the solution (32.5 μl) was mixed with water for injection (540 μl). Further, the resulting solution (550 μl) was mixed with Freund's incomplete adjuvant (700 μl) (Montanide ISA51 (registered trademark)) (SEPPIC, Inc, Paris, France) using a glass syringe to prepare water-in-oil emulsion.
The resulting preparation (200 μl) was injected into an HLA-A2402/K^b transgenic mouse intradermally in the base of the tail for immunization. 7 days after initiation of the experiment, spleen was removed and splenocytes were prepared in a conventional manner (WO 02/47474). Then, tests were conducted using mouse IFN gamma ELISPOT set (Enzyme—Linked Immunospot) (Fujisawa, catalog No. BD-551083). The test was conducted according to the instructions attached to the set.
According to the attached instructions, the plate was washed and the number of spots was detected using KS Elispot Research System (Carl Zeiss). Elispot method is known as an alternative to a test for cytotoxic activity (J. Immunological Methods, 1995, 181, 45-54).

[1] = test system: HLA-A2402 expressing VA13/A2402 cells pulsed with or without peptide; assay: Test using human PBMC: IFN-γ ELISA of peptide-stimulated CD8 positive T cells; assay type: cell-based; settings: Day 21 T cells, FIG. 9
Procedure: Peripheral blood (50 ml) was taken using heparinized vacuum blood collection tube from HLA-A24 positive healthy subjects. The blood diluted two fold with PBS (−) was overlayered on Ficoll-Paque (Amersham Biosciences), the amount of which was half of the amount of the blood, followed by centrifugation for 20 minutes at 2000 rpm. A cell layer containing the peripheral blood mononuclear cells (PBMC) was collected and 3-4 times the amount of PBS (−) was added thereto, followed by centrifugation for 10 minutes at 1800 rpm. The cell pellet was washed twice with PBS (−) and PMBC was collected.
The PMBC was suspended in medium for culturing lymphocyte (RPMI1640: AIM V=1:1, NEAA, 10% FCS) and cultured in a culture flask for two hours and nonadherent cells were collected. Using CD8^+ T cell isolation kit II (Miltenyi Biotec), CD8 positive T cells were collected among the nonadherent cells. The adherent cells were cultured in the medium for culturing lymphocyte containing GM-CSF (1000 U/ml) and IL-4 (1000 U/ml) for 7 days. The floating cells were collected as an antigen-presenting cell fraction containing dendritic cells (DC). The collected cells were frozen for preservation until they are used for experiments.
The DC fraction prepared as above was pulsed with the peptide of Example 1 (50 μg/ml) by incubating the cells with the peptide in AIM-V medium containing mitomycin (50 μg/ml) for one hour. After washing with the medium three times, the peptide of Example 1 was further added (50 μg/ml) for one hour pulse to prepare antigen-presenting cells. On Day 0, antigen-presenting cells pulsed with the peptide were added to CD8 positive T cells to conduct the first stimulation, and the cell culture was started in medium for culturing lymphocyte containing IL-7 (10 ng/ml) using 24-well plate. On Day 7, T cells were collected and after washing them, peptide stimulation using antigen-presenting cells pulsed with the peptide was conducted in a similar way to the first stimulation. On the next day (Day 8), IL-2 was added so that the concentration was 50 U/ml. On Day 14, T cells were collected and the third stimulation was conducted in a similar way to the first or second stimulation. On the next day (Day 15), IL-2 was added so that the concentration was 50 U/ml. On Day 21, T cells were collected and frozen for preservation.
1×10^5 cells of T cells of Day 21 were added to 2×10^4 cells of HLA-A2402 expressing VA13/A2402 cells pulsed with or without each of the peptides (wild type peptide (WT1235-243), modified peptide (WT1235-243(2M→Y)) or the peptide of Example 1) and 18 hours later, the supernatant was collected to determine the amount of IFN-γ using ELISA.
The results of the peptide specific reactivity of T cells stimulated with the synthetic peptide of Example 1 were shown in FIG. 9. […]

## CMTWNQMNL [WT1235-243, peptide spanning positions 235 to 243 of the cancer antigen protein WT1]
HLA-A24
  activity to induce CTLs: having an activity to induce CTLs in HLA-A24-restricted manner

## CYTWNQMNL [WT1235-243 (2M→Y)]
HLA-A24 antigen
  binding affinity for the HLA-A24 antigen: higher binding affinity for the HLA-A24 antigen than the wild type peptide

## H-Cys(H-Cys-OH)-Tyr-Thr-Trp-Asn-Gln-Met-Asn-Leu-OH (H-C(Cys)YTWNQMNL-OH; also: Cys1 disulfide-linked to a free Cys-OH (cystine)) [Example 1, derivative of WT1235-243 (2M→Y) modified with cystine]
splenocytes
  HLA-A24 specific cell-mediated immunity, IFN gamma ELISPOT spots: could induce HLA-A24 specific cell-mediated immunity which cross reacted with the wild type peptide
[1]; VA13/A2402 cells not pulsed, 18 hours
  reactivity (IFN-γ) of T cells stimulated with the peptide to cells pulsed without the peptide: did not react
[1]; VA13/A2402 cells pulsed with WT1235-243 (2M→Y), 18 hours
  reactivity (IFN-γ) of T cells stimulated with the peptide to cells pulsed with the modified peptide (WT1235-243 (2M→Y)): reacted
[1]; VA13/A2402 cells pulsed with WT1235-243, 18 hours
  reactivity (IFN-γ) of T cells stimulated with the peptide to cells pulsed with the wild type peptide (WT1235-243): reacted
[1]; VA13/A2402 cells pulsed with the peptide of Example 1, 18 hours
  reactivity (IFN-γ) of T cells stimulated with the peptide to cells pulsed with the peptide of Example 1: sufficiently reacted
